The text below walks through data of US20140256656A1, “D-MANNOSE CONTRACEPTIVES” (Bio-Tech Pharmacal, Inc., priority 2002, published 2014).

The subject of assay [1] is sperm adhering or attaching to the egg. The assay can be described thus: Equine-field observation of conception after D-Mannose. Type of assay: in vivo. The settings on record: D-Mannose in sufficient quantities at the appropriate times. An excerpt: In the equine field, Mr. […] Accordingly, the invention finds application in all fields of mammal animal husbandry to prevent unwanted cross-breeding, and to also prevent unwanted unproductive periods that are caused by undesired breeding.

The subject of another assay is bacteria. The settings on record: as described in the referenced earlier patents and applications of Dale Benedict; cited from earlier work.

Turning to `O=C[C@@H](O)[C@@H](O)[C@H](O)[C@H](O)CO` [D-Mannose], in assay [1], the likelihood of conception entry is listed as “reduces the likelihood of conception”. Besides, the “adherence of bacteria to membranes or cell walls” value with bacteria is “inhibits the adherence of bacteria to membranes or cell walls”.
